Target: T1, ML1a human melatonin receptor (Homo sapiens, UniProt P48039)
T1 construct: expressed in transfected cells
Assay: Melatonergic Receptor Binding Activity (2-[125I]-iodomelatonin, membranes of NIH-3T3 cells expressing ML1a receptor)
Settings: 37° C. for 1 hour, read-out: Melatonin Binding Affinity (IC50)
Method: Melatonergic Receptor Binding Activity
(a) TME=50 mM Tris buffer containing 12.5 mM MgCl2, and 2 mM EDTA, pH 7.4 at 37° C. with concentrated HCl.
(b) Wash buffer: 20 mM Tris base containing 2 mM MgCl2, pH 7.4 at room temperature.
(c) 10^-4 M melatonin (10^-5 M final concentration).
(d) 2-[^125 I]-iodomelatonin, […] final concentration
The melatonin ML1a receptor cDNA was subcloned into pcDNA3 and introduced into NIH-3T3 cells using Lipofectamine. Transformed NIH-3T3 cells resistant to geneticin (G-418) were isolated, and single colonies expressing high levels of 2[^125 I]-iodomelatonin binding were isolated. Cells are maintained in DMEM supplemented with 10% calf serum and G-418 (0.5 g/liter). Cells are grown to confluency in T-175 flasks, scraped using Hank's balanced salt solution, and frozen at -80° C. For preparing membrane homogenates, pellets are thawed on ice, and resuspended in TME buffer in the presence of 10 μg/ml aprotinin and leupeptin, and 100 μM phenylmethylsulfonylfluoride. The cells were then homogenized using a dounce homogenizer, and centrifuged. The resulting pellet was resuspended with dounce homogenizer in TME (supplemented with the above protease inhibitors) and frozen. On the day of assay, the small aliquot was thawed on ice and resuspended in ice cold TME (1:50-1:100 v/v) and held on ice until assayed.
3. Incubation: 37° C. for 1 hour. Reaction is terminated by filtration. Filters are washed 3 times.

T1 sequence (P48039 whole entry): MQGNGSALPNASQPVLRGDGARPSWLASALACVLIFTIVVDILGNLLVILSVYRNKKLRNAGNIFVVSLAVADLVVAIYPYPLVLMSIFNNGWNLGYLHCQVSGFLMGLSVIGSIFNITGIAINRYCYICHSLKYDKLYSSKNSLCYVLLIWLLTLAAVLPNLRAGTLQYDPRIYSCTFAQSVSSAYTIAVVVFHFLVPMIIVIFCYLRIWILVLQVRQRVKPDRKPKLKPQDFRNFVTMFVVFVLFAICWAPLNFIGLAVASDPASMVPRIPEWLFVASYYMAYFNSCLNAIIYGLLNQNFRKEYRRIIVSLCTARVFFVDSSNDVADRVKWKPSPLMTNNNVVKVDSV

Row | SMILES | IC50 [nM]
1 | CC(C)C(=O)NC[C@@H]1C[C@H]1c1cccc2c1OCO2 (relative stereo) [Example 11, (trans)-N-[[2-(1,3-benzodioxol-4-yl)cycloprop-1-yl]methyl]-2-methylpropanamide] | 10 to 100
2 | O=C(NC[C@@H]1C[C@H]1c1cccc2c1OCCO2)C1CC1 (relative stereo) [Example 18, (trans)-N-[[2-(2,3-dihydro-1,^4-benzodioxin-5-yl)cycloprop-1-yl]-methyl]cyclopropane carboxamide] | 10 to 100
3 | CC(=O)NC[C@@H]1C[C@H]1c1cccc2c1OCCCO2 (relative stereo) [Example 60] | 10 to 100
4 | CCC(=O)NC[C@@H]1C[C@H]1c1cccc2c1CCCCO2 (relative stereo) [Example 61] | 100 to 250
5 | O=C(NC[C@@H]1C[C@H]1c1cccc2c1OCC2)C1CC1 (relative stereo) [Example 67] | 10 to 100
6 | O=C(NC[C@@H]1C[C@H]1c1cccc2ccoc12)C1CC1 (relative stereo) [Example 80, (trans)-N-[[2-(benzofuran-7-yl)cycloprop-1-yl]methyl]-cyclopropanecarboxamide] | 10 to 100
7 | CCC(=O)NC[C@@H]1C[C@H]1c1cccc2c1CCCO2 (single isomer, unassigned) [Example 42, (-)-(trans)-N-[[2-(3,4-dihydro-2H-1-benzopyran-5-yl)cycloprop-1-yl]methyl]propanamide] | 10 to 100
8 | CCC(=O)NCC1C(c2cccc3oc(C)cc23)C1(F)F (stereo not shown) [Example 95, N-[[2-(2-Methyl-4-benzofuranyl)-3,3-difluorocyclopropanyl]-methyl]propanamide] | 10 to 100

Second part, the molecule after the results:

Row | IC50 [nM] | SMILES
9 | < 10 | CC(=O)NC[C@@H]1C[C@H]1c1cccc2c1OCO2 (relative stereo) [Example 3, (trans)-N-[[2-(1,3-benzodioxol-4-yl)cycloprop-1-yl]methyl]acetamide]
10 | < 10 | CCC(=O)NC[C@@H]1C[C@H]1c1cccc2occc12 (relative stereo) [Example 23, (trans)-N-[[2-(benzofuran-4-yl)cycloprop-1-yl]methyl]propanamide]
11 | < 10 | CCC(=O)NC[C@@H]1C[C@H]1c1cccc2c1CCO2 (relative stereo) [Example 29, (trans)-N-[[2-(2,3-dihydrobenzofuran-4-yl)cycloprop-1-yl]methyl] propanamide]
12 | < 10 | CCCC(=O)NC[C@@H]1C[C@H]1c1cccc2c1CCO2 (relative stereo) [Example 30, (trans)-N-[[2-(2,3-dihydrobenzofuran-4-yl)cycloprop-1-yl]methyl] butanamide]
13 | < 10 | CCCC(=O)NC[C@@H]1C[C@H]1c1cccc2oc(C)cc12 (relative stereo) [Example 76, (trans)-N-[[2-(2-methyl-benzofuran-4-yl)cycloprop-1-yl]methyl]-butanamide]
14 | < 10 | CCC(=O)NC[C@@H]1C[C@H]1c1cccc2c1CCO2 (single isomer, unassigned) [Example 2, (-)-(trans)-N-[[2-(2,3-Dihydrobenzofuran-4-yl)cycloprop-1-yl]methyl]propanamide]
15 | < 10 | C=CC(=O)NC[C@@H]1C[C@H]1c1cccc2c1OCCO2 (single isomer, unassigned) [Example 52]
16 | < 10 | O=C(NC[C@@H]1C[C@H]1c1cccc2c1OCCO2)C(F)(F)F (single isomer, unassigned) [Example 54, (-)-(trans)-N-[[2-(2,3-dihydro-1,4-benzodioxin-5-yl)cycloprop-1-yl]methyl]trifluoroacetamide]
17 | < 10 | CCC(=O)NC[C@@H]1C[C@H]1c1cccc2c1CCCO2 (single isomer, unassigned) [Example 96, (+)-(trans)-N-[[2-(3,4-dihydro-2H-1-benzopyran-5-yl)cycloprop-1-yl]methyl]propanamide]
18 | < 10 | CCC(=O)NC[C@@H]1C[C@H]1c1cccc2c1CC(C)O2 (single isomer, unassigned; (+)) [Example 82, (+)-(trans)-N-[[2-(2-methyl-2,3-dihydrobenzofuran-4-yl)cycloprop-1-yl]methyl]propanamide]
19 | < 10 | CCC(=O)NC[C@@H]1C[C@H]1c1cccc2c1CC(C)O2 (single isomer, unassigned; (-)) [Example 88, (-)-(trans)-N-[[^2-(2-methyl-2,3-dihydrobenzofuran-4-yl)cycloprop-1-yl]methyl]propanamide]

Reference: US5856529A, “Benzofuran and dihydrobenzofuran melatonergic agents” (Bristol-Myers Squibb Company, priority 1997, dated 1999)
